Columns and labels:
Dabrafenib + Trametinib = compound: CC(C)(C)c1nc(-c2cccc(NS(=O)(=O)c3c(F)cccc3F)c2F)c(-c2ccnc(N)n2)s1 [Dabrafenib] + CC(=O)Nc1cccc(-n2c(=O)n(C3CC3)c(=O)c3c(Nc4ccc(I)cc4F)n(C)c(=O)c(C)c32)c1 [Trametinib] (partner 0.02 µM); assay: relative viability (nuclei count vs DMSO), 5 days (fraction); higher = more cells survive
In short: (§1)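 One day after seeding in 1536-well plates, lung cancer cell lines were dosed by pin tool. Dosing was either single-drug or a fixed anchor-drug dose plus five library-drug doses (not always all listed) in √10 steps. After 5 days, nuclei were stained in one fix-and-stain step and counted on 4× images, and relative viability is the nuclei count of treated wells over that of vehicle wells, given as the median of duplicate plates.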

Dabrafenib + AZD7762 = compound: CC(C)(C)c1nc(-c2cccc(NS(=O)(=O)c3c(F)cccc3F)c2F)c(-c2ccnc(N)n2)s1 [Dabrafenib] + NC(=O)Nc1cc(-c2cccc(F)c2)sc1C(=O)N[C@H]1CCCNC1 [AZD7762] (partner 0.2 µM); assay: as above
In short: as §1

Cell Line | relative viability (Dabrafenib + Trametinib; first compound 0.003 µM) | relative viability (Dabrafenib + Trametinib; first compound 0.009487 µM) | relative viability (Dabrafenib + Trametinib; first compound 0.03 µM) | relative viability (Dabrafenib + Trametinib; first compound 0.09487 µM) | relative viability (Dabrafenib + Trametinib; first compound 0.3 µM) | relative viability (Dabrafenib + AZD7762; first compound 0.003 µM) | relative viability (Dabrafenib + AZD7762; first compound 0.009487 µM) | relative viability (Dabrafenib + AZD7762; first compound 0.03 µM) | relative viability (Dabrafenib + AZD7762; first compound 0.09487 µM) | relative viability (Dabrafenib + AZD7762; first compound 0.3 µM)
UMC-11 | 0.773 | 0.759 | 0.495 | 0.755 | 0.848 |  |  |  |  | 
NCI-H1437 | 0.522 | 0.502 | 0.688 | 0.579 | 0.73 | 1.09 | 1.16 | 1.19 | 1.11 | 1.18
EKVX |  | 0.367 | 0.304 | 0.434 | 0.462 |  | 0.749 | 0.588 | 0.676 | 0.72
COR-L 105 | 0.418 | 0.478 | 0.46 | 0.479 | 0.521 |  |  |  |  | 
NCI-H650 |  | 0.913 | 1.01 | 0.942 | 1.04 |  | 1.08 | 0.82 | 0.663 | 0.724
NCI-H1648 | 0.457 | 0.524 |  | 0.425 | 0.585 | 0.638 | 0.797 |  | 0.611 | 0.802
NCI-H2009 | 0.262 | 0.266 | 0.312 | 0.354 | 0.399 |  |  |  |  | 
LXF-289 | 0.677 | 0.653 | 0.711 | 0.672 | 0.733 | 0.162 | 1.13 | 1.22 | 1.06 | 1.29
NCI-H647 | 0.42 | 0.394 | 0.306 | 0.579 | 0.553 |  | 0.437 |  | 0.32 | 0.43
NCI-H1666 | 0.818 | 0.782 | 0.837 | 0.832 | 0.885 | 0.592 | 0.879 | 0.742 | 0.778 | 0.937
NCI-H1734 |  | 0.718 | 0.627 | 0.721 | 0.727 |  | 0.587 | 0.5 | 0.452 | 0.378
BEN |  | 1.07 |  | 0.842 | 1.11 |  | 0.769 |  | 0.81 | 0.852
PC-3 [JPC-3] |  | 0.812 | 0.751 | 0.893 | 0.863 |  | 1.02 | 0.857 | 1.02 | 1.07
NCI-H2228 | 0.269 | 0.45 | 0.497 | 0.597 | 0.658 |  |  |  |  | 
HOP-62 | 0.352 | 0.41 | 0.36 | 0.429 | 0.469 | 0.088 | 0.449 | 0.493 | 0.424 | 0.452
H3255 | 0.641 | 0.584 | 0.668 | 0.639 | 0.789 | 0.791 | 0.94 | 0.908 | 0.758 | 1.16
201T | 0.723 | 0.744 | 0.654 | 0.685 | 0.751 | 0.28 | 0.711 | 0.59 | 0.461 | 0.475
HCC-44 | 0.926 | 0.993 | 1.18 | 0.876 | 1.11 | 0.966 | 1.02 | 1.12 | 1.06 | 1
ABC-1 |  |  |  |  |  | 0.345 | 0.638 | 0.823 | 0.789 | 0.597

Cell Line | relative viability (Dabrafenib + Trametinib; first compound 0.003 µM) | relative viability (Dabrafenib + Trametinib; first compound 0.009487 µM) | relative viability (Dabrafenib + Trametinib; first compound 0.03 µM) | relative viability (Dabrafenib + Trametinib; first compound 0.09487 µM) | relative viability (Dabrafenib + Trametinib; first compound 0.3 µM) | relative viability (Dabrafenib + AZD7762; first compound 0.003 µM) | relative viability (Dabrafenib + AZD7762; first compound 0.009487 µM) | relative viability (Dabrafenib + AZD7762; first compound 0.03 µM) | relative viability (Dabrafenib + AZD7762; first compound 0.09487 µM) | relative viability (Dabrafenib + AZD7762; first compound 0.3 µM)
HARA |  | 0.805 | 0.832 | 0.721 | 1 |  | 0.392 | 0.46 | 0.368 | 0.312
A-427 | 0.759 | 0.737 | 0.745 | 0.65 | 0.785 | 0.355 | 0.808 | 0.636 | 0.646 | 0.744
NCI-H3122 | 0.273 | 0.209 | 0.159 | 0.212 | 0.238 | 0.508 | 1.03 | 1.06 | 0.986 | 1.07
PC-14 |  | 0.976 | 0.944 | 0.708 | 1 | 0.0746 | 0.375 | 0.363 | 0.297 | 0.414
NCI-H1915 | 0.295 | 0.249 | 0.264 | 0.288 | 0.313 | 0.712 | 0.653 | 0.368 | 0.268 | 0.282
NCI-H1793 |  | 0.416 |  | 0.451 | 0.412 |  | 0.489 |  | 0.493 | 0.434
NCI-H1650 | 0.671 | 0.609 | 0.552 | 0.666 | 0.673 |  |  |  |  | 
CAL-12T | 0.327 | 0.319 | 0.382 | 0.334 | 0.445 | 0.59 | 0.626 | 0.661 | 0.594 | 0.703
HCC-15 | 0.354 | 0.437 | 0.378 | 0.374 | 0.506 | 1.17 | 1.11 | 1.09 | 1.16 | 1.09
LC-2-ad | 0.891 | 0.931 | 0.901 | 0.862 | 0.992 | 0.654 | 0.945 | 0.87 | 0.92 | 1.07
NCI-H520 | 0.665 | 0.653 | 0.541 | 0.627 | 0.628 |  |  |  |  | 
LOU-NH91 |  | 0.774 | 0.792 | 0.782 | 0.837 |  | 0.768 | 0.734 | 0.725 | 0.827
NCI-H1703 |  |  |  |  |  |  |  |  |  | 0.136
NCI-H1355 |  | 0.509 | 0.456 | 0.471 | 0.535 |  | 0.814 | 0.669 | 0.655 | 0.803
LCLC-97TM1 |  | 0.225 | 0.193 | 0.21 | 0.205 |  | 0.239 | 0.25 | 0.129 | 0.224
LCLC-103H | 0.635 | 0.707 | 0.614 | 0.684 | 0.701 | 0.703 | 0.834 | 0.701 | 0.794 | 0.761
NCI-H1792 |  | 0.484 | 0.405 | 0.439 | 0.474 |  | 0.723 | 0.434 | 0.34 | 0.485
LK-2 | 0.692 | 0.925 | 0.473 | 0.774 | 0.934 | 0.125 | 0.449 |  | 0.433 | 0.467
